Counter-ions that a name gives are not always drawn.
What follows are molecules tested against T1, JH2 domain of human Tyk2 (Homo sapiens, UniProt P29597) (assay: JH2 biochemical assay (TR-FRET probe displacement)). Settings: JH2 biochemical assay.
T1 construct: 10×His-tagged TYK2 JH2 domain (amino acid 575-876)
Format: binding
Description: The inhibitory potency of compounds of the disclosure against the kinase activity of recombinantly generated JH2 domain of human Tyk2 was evaluated in a plate-based assay using a TR-FRET assay platform. Briefly, 2 nM of recombinant JH2 domain [10×His-tagged TYK2 JH2 domain (amino acid 575-876)] was combined with 2 nM probe ((S)-6-amino-9-(2-carboxy-4-((1-(3-(8-methyl-5-(methylamino)-8H-imidazo[4,5-d]thiazolo[5,4-b]pyridin-2-yl)phenyl)ethyl)carbamoyl)phenyl)-3-iminio-5-sulfo-3H-xanthene-4-sulfonate), 0.1 nM Tb-labeled anti-His antibody, and compounds of disclosure for 60 minutes. Compounds are tested at either […] top concentration, 10 points of 3-fold dilution. The TR-FRET signal […] by compounds and signal was calculated by taking the ratio of fluorescence at 520 nm and 495 nm. The data was normalized and the percent activity versus log concentration of compound was fitted with a 4-parameter logistic model to generate IC50 curves.

T1 sequence (P29597 575-876): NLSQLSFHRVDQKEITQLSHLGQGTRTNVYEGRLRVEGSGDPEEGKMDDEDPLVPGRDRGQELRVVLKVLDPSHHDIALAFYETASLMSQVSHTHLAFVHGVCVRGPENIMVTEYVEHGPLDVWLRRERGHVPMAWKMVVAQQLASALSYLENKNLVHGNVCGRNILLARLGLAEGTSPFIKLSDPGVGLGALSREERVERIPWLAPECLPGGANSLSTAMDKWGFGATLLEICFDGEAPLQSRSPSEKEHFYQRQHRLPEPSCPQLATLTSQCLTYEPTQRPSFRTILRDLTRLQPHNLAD

| Structure (SMILES) | IC50 [nM] |
| --- | --- |
| CC(=O)Nc1cc2c(cn1)C1(CC1)CN2c1ncc(C)s1 [Example 78, N-(1′-(5-methylthiazol-2-yl)-1′,2′-dihydrospiro[cyclopropane-1,3′-pyrrolo[3,2-c]pyridin]-6′-yl)acetamide trifluoroacetate] | 10 to 100 |
| CC(=O)Nc1cc2c(cn1)C1(CC1)CN2c1cc(C)cc(-c2cnn(CC3CC3)c2)n1 [Example 266, N-(1′-(6-(1-(cyclopropylmethyl)-1H-pyrazol-4-yl)-4-methylpyridin-2-yl)-1′,2′-dihydrospiro[cyclopropane-1,3′-pyrrolo[3,2-c]pyridin]-6′-yl)acetamide trifluoroacetate] | 10 to 100 |
| CC(=O)Nc1cc2c(cn1)C1(CC1)CN2c1nccs1 [Example 77, N-(1′-(thiazol-2-yl)-1′,2′-dihydrospiro[cyclopropane-1,3′-pyrrolo[3,2-c]pyridin]-6′-yl)acetamide trifluoroacetate] | 100 to 1000 |
| CC(=O)Nc1cc2c(cn1)C1(CC1)CN2c1cc(C)nc(C2CCN(C(C)C)CC2)n1 [Example 121, N-(1′-(2-(1-isopropylpiperidin-4-yl)-6-methylpyrimidin-4-yl)-1′,2′-dihydrospiro[cyclopropane-1,3′-pyrrolo[3,2-c]pyridin]-6′-yl)acetamide] | ≥ 1000 |
| CC(=O)Nc1cc2c(cn1)CCN2c1cccc(C2CCOC2)n1 (stereo not shown) [Example 33, N-(1-(6-(tetrahydrofuran-3-yl)pyridin-2-yl)-2,3-dihydro-1H-pyrrolo[3,2-c]pyridin-6-yl)acetamide] | 10 to 100 |
| CC(=O)Nc1cc2c(cn1)C1(CC1)CN2c1cc(C)[nH]c(=O)n1 [Example 134, N-(1′-(6-methyl-2-oxo-1,2-dihydropyrimidin-4-yl)-1′,2′-dihydrospiro[cyclopropane-1,3′-pyrrolo[3,2-c]pyridin]-6′-yl)acetamide] | ≥ 1000 |
| CC(=O)Nc1cc2c(cn1)C1(CCOCC1)CN2c1cccc(C(C)(F)F)n1 [Example 48, N-(1′-(6-(1,1-difluoroethyl)pyridin-2-yl)-1′,2,2′,3,5,6-hexahydrospiro[pyran-4,3′-pyrrolo[3,2-c]pyridin]-6′-yl)acetamide] | 100 to 1000 |
| CC(=O)Nc1cc2c(cn1)C1(CC1C)CN2c1nccc(C(C)(F)F)n1 (stereo not shown) [Example 36, N-(1′-(4-(1,1-difluoroethyl)pyrimidin-2-yl)-2-methyl-1′,2′-dihydrospiro[cyclopropane-1,3′-pyrrolo[3,2-c]pyridin]-6′-yl)acetamide] | 10 to 100 |
| COC1CCCN(c2nc(C)cc(N3CC4(CC4)c4cnc(NC(C)=O)cc43)n2)C1 (stereo not shown) [Example 230, N-(1′-(2-(3-methoxypiperidin-1-yl)-6-methylpyrimidin-4-yl)-1′,2′-dihydrospiro[cyclopropane-1,3′-pyrrolo[3,2-c]pyridin]-6′-yl)acetamide] | 100 to 1000 |
| CCN1CC(Oc2cc(N3CC4(CC4)c4cnc(NC(C)=O)cc43)nc(C(C)(F)F)n2)C1 [Example 148, N-(1′-(2-(1,1-difluoroethyl)-6-((1-ethylazetidin-3-yl)oxy)pyrimidin-4-yl)-1′,2′-dihydrospiro[cyclopropane-1,3′-pyrrolo[3,2-c]pyridin]-6′-yl)acetamide trifluoroacetate] | ≥ 1000 |
| CC(=O)Nc1cc2c(cn1)C1(CC1)CN2c1cc(C)nc(N2CC(C#N)(CF)C2)n1 [Example 218, N-(1′-(2-(3-cyano-3-(fluoromethyl)azetidin-1-yl)-6-methylpyrimidin-4-yl)-1′,2′-dihydrospiro[cyclopropane-1,3′-pyrrolo[3,2-c]pyridin]-6′-yl)acetamide] | ≤ 10 |
| CC(=O)Nc1cc2c(cn1)C1(CC1)CN2c1cc(C)nc(C)n1 [Example 68, N-(1′-(2,6-dimethylpyrimidin-4-yl)-1′,2′-dihydrospiro[cyclopropane-1,3′-pyrrolo[3,2-c]pyridin]-6′-yl)acetamide] | 10 to 100 |
| COC(C)(C)c1nccc(N2CC3(CC3)c3cnc(NC(C)=O)cc32)n1 [Example 132, N-(1′-(2-(2-methoxypropan-2-yl)pyrimidin-4-yl)-1′,2′-dihydrospiro[cyclopropane-1,3′-pyrrolo[3,2-c]pyridin]-6′-yl)acetamide] | 10 to 100 |
| CC(=O)Nc1cc2c(cn1)CCN2c1ccnc(C(C)(F)F)n1 [Example 30, N-(1-(2-(1,1-difluoroethyl)pyrimidin-4-yl)-2,3-dihydro-1H-pyrrolo[3,2-c]pyridin-6-yl)acetamide] | 100 to 1000 |

What follows are molecules tested on Tyk2 kinase activity on STAT4 (assay: pSTAT4 cell assay (MSD, NK92 cells)). Settings: compounds 1 hr, stimulated 15 minutes.
Format: cell-based
Description: The inhibitory potency of compounds of the disclosure against the Tyk2 kinase activity on STAT4 was evaluated using an MSD-platform plate-based assay format. NK92 cells natively expressing STAT4 and Tyk2 were serum-starved to reduce background phosphorylation levels, then cells were treated compounds for 1 hr with a 10-point four-fold dilution series starting at 10 μM. Cells were then stimulated with 30 ng/mL IL2 for 15 minutes. Cells were lysed and […] levels were quantitated using an MSD plate-based assay with anti-STAT4 antibodies. The data were normalized and the percent activity versus log concentration of compound were fitted with a 4-parameter logistic model to generate to generate IC50 curves.

| Structure (SMILES) | IC50 [nM] |
| --- | --- |
| CC(=O)Nc1cc2c(cn1)C1(CC1)CN2c1cc(C)nc(-c2cccnc2)n1 [Example 106, N-(1′-(6-methyl-2-(pyridin-3-yl)pyrimidin-4-yl)-1′,2′-dihydrospiro[cyclopropane-1,3′-pyrrolo[3,2-c]pyridin]-6′-yl)acetamide] | ≥ 1000 |
| CC(=O)Nc1cc2c(cn1)C1(CC1)CN2c1cc(C)nc(-c2ncccn2)n1 [Example 108, N-(1′-(6-methyl-[2,2′-bipyrimidin]-4-yl)-1′,2′-dihydrospiro[cyclopropane-1,3′-pyrrolo[3,2-c]pyridin]-6′-yl)acetamide] | ≥ 1000 |
| CC(=O)Nc1cc2c(cn1)C1(CC1)CN2c1cc(C)nc(-c2cc[nH]n2)n1 [Example 252, N-(1′-(6-methyl-2-(1H-pyrazol-3-yl)pyrimidin-4-yl)-1′,2′-dihydrospiro[cyclopropane-1,3′-pyrrolo[3,2-c]pyridin]-6′-yl)acetamide trifluoroacetate] | 100 to 1000 |
| CC(=O)Nc1cc2c(cn1)C1(CC1)CN2c1cc(C)nc(-c2cnn(C3CCC3)c2)n1 [Example 246, N-(1′-(2-(1-cyclobutyl-1H-pyrazol-4-yl)-6-methylpyrimidin-4-yl)-1′,2′-dihydrospiro[cyclopropane-1,3′-pyrrolo[3,2-c]pyridin]-6′-yl)acetamide] | ≥ 1000 |
| CC(=O)Nc1cc2c(cn1)C1(CC1)CN2c1cc(NC23CC(C2)C3)nc(C(C)(F)F)n1 [Example 159, N-(1′-(6-(bicyclo[1.1.1]pentan-1-ylamino)-2-(1,1-difluoroethyl)pyrimidin-4-yl)-1′,2′-dihydrospiro[cyclopropane-1,3′-pyrrolo[3,2-c]pyridin]-6′-yl)acetamide trifluoroacetate] | 10 to 100 |
| CC(=O)Nc1cc2c(cn1)C1(CC1)CN2c1cc(C)nc(-c2ccccc2)n1 [Example 105, N-(1′-(6-methyl-2-phenylpyrimidin-4-yl)-1′,2′-dihydrospiro[cyclopropane-1,3′-pyrrolo[3,2-c]pyridin]-6′-yl)acetamide] | ≥ 1000 |
| CC(=O)Nc1cc2c(cn1)C1(CC1)CN2c1cc(C)nc(N(C)C(C)C)n1 [Example 115, N-(1′-(2-(isopropyl(methyl)amino)-6-methylpyrimidin-4-yl)-1′,2′-dihydrospiro[cyclopropane-1,3′-pyrrolo[3,2-c]pyridin]-6′-yl)acetamide] | ≥ 1000 |
| CC(=O)Nc1cc2c(cn1)C1(CC1)CN2c1cc(C)nc(-c2cccc(F)c2)n1 [Example 111, N-(1′-(2-(3-fluorophenyl)-6-methylpyrimidin-4-yl)-1′,2′-dihydrospiro[cyclopropane-1,3′-pyrrolo[3,2-c]pyridin]-6′-yl)acetamide] | ≥ 1000 |
| CC(=O)Nc1cc2c(cn1)C1(CC1)CN2c1cc(C)nc(-c2cnc(C)s2)n1 [Example 255, N-(1′-(6-methyl-2-(2-methylthiazol-5-yl)pyrimidin-4-yl)-1′,2′-dihydrospiro[cyclopropane-1,3′-pyrrolo[3,2-c]pyridin]-6′-yl)acetamide trifluoroacetate] | ≥ 1000 |
| CC(=O)Nc1cc2c(cn1)C1(CC1)CN2c1cc(C)nc(N2CCC(N(C)C)C2)n1 (stereo not shown) [Example 215, N-(1′-(2-(3-(dimethylamino)pyrrolidin-1-yl)-6-methylpyrimidin-4-yl)-1′,2′-dihydrospiro[cyclopropane-1,3′-pyrrolo[3,2-c]pyridin]-6′-yl)acetamide] | ≥ 1000 |
| COCCOc1nc(C)cc(N2CC3(CC3)c3cnc(NC(C)=O)cc32)n1 [Example 360, N-(1′-(2-(2-methoxyethoxy)-6-methylpyrimidin-4-yl)-1′,2′-dihydrospiro[cyclopropane-1,3′-pyrrolo[3,2-c]pyridin]-6′-yl)acetamide trifluoroacetate] | ≥ 1000 |
| CC(=O)Nc1cc2c(cn1)C1(CC1)CN2c1cc(C)nc(C2CC2(C)C)n1 (stereo not shown) [Example 124, N-(1′-(2-(2,2-dimethylcyclopropyl)-6-methylpyrimidin-4-yl)-1′,2′-dihydrospiro[cyclopropane-1,3′-pyrrolo[3,2-c]pyridin]-6′-yl)acetamide] | 10 to 100 |
| CC(=O)Nc1cc2c(cn1)C1(CC1)CN2c1cc(C)nc(OC(C)C)n1 [Example 362, N-(1′-(2-isopropoxy-6-methylpyrimidin-4-yl)-1′,2′-dihydrospiro[cyclopropane-1,3′-pyrrolo[3,2-c]pyridin]-6′-yl)acetamide trifluoroacetate] | 100 to 1000 |
| CC(=O)Nc1cc2c(cn1)C1(CC1)CN2c1cc(C)nc(OC2(C)COC2)n1 [Example 365, N-(1′-(6-methyl-2-((3-methyloxetan-3-yl)oxy)pyrimidin-4-yl)-1′,2′-dihydrospiro[cyclopropane-1,3′-pyrrolo[3,2-c]pyridin]-6′-yl)acetamide] | 100 to 1000 |

Reference: patent US20260258032A1, “TYROSINE KINASE 2 INHIBITORS AND USES THEREOF” (BIOGEN MA INC., priority 2022, published 2026)
